Measured values: PubChem BioAssay (NCI)
Where “and” joins values, the source holds several entries; their conditions need not be identical. Identical values can stand only once.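 Briefly, cells in 96-well plates were exposed to five compound concentrations for 48 h, and endpoints were estimated by linear interpolation. GI50 = concentration required for 50% inhibition of growth. Definition used: TGI = concentration required for complete inhibition of growth.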

Columns and labels:
Assay in all cases: NCI anticancer screen, dose series, 48 h
CAKI-1 renal = test system: CAKI-1 renal
HCT-116 colon = test system: HCT-116 colon
MDA-MB-435 = test system: MDA-MB-435
T-47D breast = test system: T-47D breast
UO-31 renal = test system: UO-31 renal
CCRF-CEM leukemia = test system: CCRF-CEM leukemia
HCC-2998 colon = test system: HCC-2998 colon
MOLT-4 leukemia = test system: MOLT-4 leukemia
NCI-H460 lung = test system: NCI-H460 lung
NCI/ADR-RES ovarian = test system: NCI/ADR-RES ovarian

Row | SMILES | GI50 (CAKI-1 renal) [nM] | GI50 (HCT-116 colon) [nM] | GI50 (MDA-MB-435) [nM] | GI50 (T-47D breast) [µM] | TGI (T-47D breast) | GI50 (UO-31 renal) [nM] | TGI (CCRF-CEM leukemia) [µM] | TGI (HCC-2998 colon) [µM] | TGI (HCT-116 colon) [µM] | TGI (MOLT-4 leukemia) | TGI (NCI-H460 lung) [µM] | TGI (UO-31 renal) [µM] | TGI (CAKI-1 renal) [µM] | GI50 (HCC-2998 colon) [µM] | TGI (MDA-MB-435) [µM] | GI50 (MOLT-4 leukemia) [µM] | GI50 (NCI-H460 lung) [µM] | GI50 (NCI/ADR-RES ovarian) [µM] | TGI (NCI/ADR-RES ovarian) [µM] | GI50 (CCRF-CEM leukemia) [µM]
1 | Cc1c[nH]c2c(O)cc3c(c12)[C@H](CCl)CN3C(=O)c1cc2cc(NC(=O)Nc3ccc4[nH]c(C(=O)N5C[C@@H](CCl)c6c5cc(O)c5[nH]cc(C)c65)cc4c3)ccc2[nH]1 | 0.268 | 3.1 | 14.6 | 0.00671 | 91.1 nM and 46.1 nM | 29.1 |  |  |  |  |  |  |  |  |  |  |  |  |  | 
2 | O=C1c2ccccc2-c2cccc3ccc(Cc4ccc5ccccc5c4)c1c23 |  |  |  |  |  |  | > 100 | > 100 | > 100 | > 100 µM | > 100 | > 100 |  |  |  |  |  |  |  | 
3 | O=S(=O)(N/N=C/c1ccc(/C=N/NS(=O)(=O)c2ccccc2)cc1)c1ccccc1 |  |  |  |  |  |  | 90.2 | > 100 | > 100 | 60.9 µM | > 100 | > 100 |  |  |  |  |  |  |  | 
4 | Cc1cc(I)cc(CN(C)CCCN2CCSCC2)c1O | 20000 | 13300 | 23200 | 31.3 | > 100000 nM | 26400 |  | 32.5 | 30.8 | 41.6 µM | 40.2 | > 100 | 40.7 | 17.5 | 57.5 | 19.4 | 17.8 | 24.8 | 76.5 | 
5 | COC(=O)C1C(C(=O)OC)C2(OC)c3ccccc3-c3ccccc3C12 (stereo not drawn) |  |  |  |  |  |  | 64.3 | > 100 | > 100 | 43.6 µM | > 100 | > 100 | > 100 |  |  |  |  |  |  | 
6 | CCOC(=O)NC(=O)c1cn(CC(=O)NCC(=O)NCC(=O)NCCCN2CCN(CCCNC(=O)CNC(=O)CNC(=O)Cn3cc(C(=O)NC(=O)OCC)c(=O)[nH]c3=O)CC2)c(=O)[nH]c1=O |  |  |  |  |  |  | > 100 | > 100 | > 100 | > 100 µM | > 100 | > 100 | > 100 |  |  |  |  |  |  | 
7 | COc1c2nc(CCl)[nH]c(=O)c2c(OC)c2nc(CCl)[nH]c(=O)c12 |  |  |  |  |  |  | > 100 |  | > 100 | > 100 µM | > 100 | > 100 | > 100 |  |  |  |  |  |  | 
8 | CCN(CC)CC(O)CNc1ccc(NCC2CO2)c2c1C(=O)c1ccccc1C2=O (stereo not drawn) | 757 | 86.6 | 133 |  |  | 391 |  | 2.77 | 1.11 | 0.0582 µM and 0.0292 µM | 3.16 | 3.35 | 2.59 | 0.587 | 0.394 | 0.00515 | 0.39 |  | 0.815 | 
9 | CC(C)CS(=O)(=O)/C(=C(\c1ccc(Br)cc1)S(=O)(=O)CC(C)C)c1ccc(Br)cc1 |  |  |  |  |  |  | > 100 | > 100 | > 100 | > 100 µM | > 100 | > 100 | > 100 |  |  |  |  |  |  | 
10 | C[C@]12C[C@H](c3ccccc3)Nc3ccccc3N1C(c1ccccc1)=NO2 |  |  |  |  |  |  | > 100 | > 100 | > 100 | 78.8 µM | > 100 | > 100 | > 100 |  | > 100 |  |  |  | > 100 | 
11 | Cc1c(NC(=O)C(C)(C)Br)c(=O)oc2c(C)c3occc(=O)c3cc12 |  |  |  |  |  |  | > 100 | > 100 | > 100 | > 100 µM | > 100 | 76.2 |  |  |  |  |  |  |  | 
12 | O=C(/C=C/c1ccc(F)cc1)c1ccc(Cl)cc1Cl | 33000 | 16600 | 50000 |  |  | 91800 | 52.8 | > 100 | 31.3 | 63.9 µM | > 100 | > 100 | 89.6 | 52.7 | > 100 | 26.2 | 65.6 | 38.4 | > 100 | 22.1
13 | Cc1cc(Cl)ccc1NC(=O)CCCC(=O)C1CCCC1=O (stereo not drawn) |  |  |  |  |  |  | > 100 | > 100 | > 100 | > 100 µM | > 100 | > 100 | > 100 |  |  |  |  |  |  | 
14 | CC(=O)c1cccc(N2COC(C)(C)c3nc4ccccc4n3C2)c1 |  |  |  |  |  |  | > 100 | > 100 | > 100 | > 100 µM | > 100 | > 100 |  |  |  |  |  |  |  | 
15 | CC/C(C)=C1\CCC(CN2CCOCC2)C1=O (stereo not drawn) |  |  |  |  |  |  | 32 | 39.4 | 26.8 | > 100 µM | 32.4 | 36.6 | 5.99 |  |  |  |  |  |  | 
16 | Nc1ccc(N(S(=O)(=O)c2ccccc2)S(=O)(=O)c2ccccc2)c(Cl)c1 |  |  |  |  | > 100000 nM |  |  | 64.2 | > 100 | 60.5 µM | > 100 | > 100 | > 100 |  | > 100 |  |  |  | > 100 | 
17 | CC(=O)OCC1OC(N2C(=O)C(=O)c3cc(C)ccc32)C(OC(C)=O)C(OC(C)=O)C1OC(C)=O (stereo not drawn) |  |  |  |  |  |  | > 100 |  | > 100 | > 100 µM | > 100 | > 100 | > 100 |  |  |  |  |  |  | 
18 | O=[N+]([O-])c1cc(Cl)c(Cl)c([N+](=O)[O-])c1Cl | 184 | 624 | 1700 |  |  | 1170 | > 100 |  | 2.12 | 5.42 µM | > 100 | 2.45 | 0.36 |  | 3.46 | 0.436 | 3.3 | 1.91 | 3.75 | 0.236
19 | CN1CCN(CCCN)CC1 |  |  |  |  | > 100000 nM |  | > 100 |  | > 100 | > 100 µM |  | > 100 | > 100 |  | > 100 |  |  |  | > 100 | 
20 | O=[N+]([O-])c1cccc(/C=N\NS(=O)(=O)c2ccc(Cl)cc2)c1O |  |  |  |  |  |  | > 100 | > 100 | > 100 | > 100 µM | > 100 | > 100 | > 100 |  |  |  |  |  |  | 
21 | COc1ccc(NC(=O)C(=O)C(C(=O)c2ccccc2)C2OC(=O)c3ccccc32)c([N+](=O)[O-])c1 (stereo not drawn) |  |  |  |  |  |  | > 100 | > 100 | > 100 | > 100 µM | > 100 | > 100 | > 100 |  |  |  |  |  |  | 
22 | CCOC(=O)C(N)C[S][Sn]([CH3])([CH3])[Cl] (stereo not drawn) | > 100000 | > 100000 |  |  |  | > 100000 | > 100 | > 100 | > 100 | > 100 µM | > 100 | > 100 | > 100 | > 100 |  | > 65.2 | > 100 |  |  | > 55.2
